From patent US9045470B2, “Compounds and compositions as TLR activity modulators” (IRM LLC, priority 2009, dated 2015)

How the values were obtained:
[1] = Desorption from aluminum hydroxide with KH2PO4 and n-butanol extraction, HPLC; assay type: physicochemical
Experimental: An organic solvent extraction method was used to evaluate whether compound 1 was covalently bound to aluminum hydroxide. The formulation was prepared as follows: 2 mg/ml aluminum hydroxide, 100 μg/dose compound 1, 10 mM histidine buffer) and the pH was adjusted to 9. A control formulation without aluminum hydroxide was also prepared.
One ml of the formulation containing Alum was mixed with 1 ml of KH2PO4 1M pH 9 (0.5M final conc, pH 9) and was left in gentle agitation overnight at 37° C. to allow desorption of compound 1 (compound 5) from the aluminum hydroxide via ligand exchange with the phosphate anions. Organic extraction was then performed: 1 ml of each sample was mixed with 1 ml of n-butanol and vortexed. After the formation of 2 phases, the upper phase (butanol) was recovered, dried with N2 and resuspended in MeOH/10 mM NaOH. HPLC analysis was run both for the formulation supernatants and for the butanol extracted samples (C18 column; 0-100% B in 2 min; A=0.1% TFA in H2O; B=0.1% TFA in ACN).
The adsorption of compound 16 and compound 18 to aluminum hydroxide was also evaluated using the alum formulation described above for compound 1. […] In addition, SDS PAGE analysis of antigen binding in the presence of compound 16 or compound 18 was carried out as described above.

human TLR7 = target: T1, human TLR7 (Homo sapiens, UniProt Q9NYK1); experiment: Reporter gene assay: HEK293 cells stably transfected with human TLR7 and NF-kB-driven luciferase reporter; assay type: cell-based
T1 construct: expressed in transfected cells; host or cells: HEK 293 (human embryonic kidney 293), stably transfected; co-transfected pNifty-Luciferase reporter
T1 sequence (Q9NYK1 27-1049): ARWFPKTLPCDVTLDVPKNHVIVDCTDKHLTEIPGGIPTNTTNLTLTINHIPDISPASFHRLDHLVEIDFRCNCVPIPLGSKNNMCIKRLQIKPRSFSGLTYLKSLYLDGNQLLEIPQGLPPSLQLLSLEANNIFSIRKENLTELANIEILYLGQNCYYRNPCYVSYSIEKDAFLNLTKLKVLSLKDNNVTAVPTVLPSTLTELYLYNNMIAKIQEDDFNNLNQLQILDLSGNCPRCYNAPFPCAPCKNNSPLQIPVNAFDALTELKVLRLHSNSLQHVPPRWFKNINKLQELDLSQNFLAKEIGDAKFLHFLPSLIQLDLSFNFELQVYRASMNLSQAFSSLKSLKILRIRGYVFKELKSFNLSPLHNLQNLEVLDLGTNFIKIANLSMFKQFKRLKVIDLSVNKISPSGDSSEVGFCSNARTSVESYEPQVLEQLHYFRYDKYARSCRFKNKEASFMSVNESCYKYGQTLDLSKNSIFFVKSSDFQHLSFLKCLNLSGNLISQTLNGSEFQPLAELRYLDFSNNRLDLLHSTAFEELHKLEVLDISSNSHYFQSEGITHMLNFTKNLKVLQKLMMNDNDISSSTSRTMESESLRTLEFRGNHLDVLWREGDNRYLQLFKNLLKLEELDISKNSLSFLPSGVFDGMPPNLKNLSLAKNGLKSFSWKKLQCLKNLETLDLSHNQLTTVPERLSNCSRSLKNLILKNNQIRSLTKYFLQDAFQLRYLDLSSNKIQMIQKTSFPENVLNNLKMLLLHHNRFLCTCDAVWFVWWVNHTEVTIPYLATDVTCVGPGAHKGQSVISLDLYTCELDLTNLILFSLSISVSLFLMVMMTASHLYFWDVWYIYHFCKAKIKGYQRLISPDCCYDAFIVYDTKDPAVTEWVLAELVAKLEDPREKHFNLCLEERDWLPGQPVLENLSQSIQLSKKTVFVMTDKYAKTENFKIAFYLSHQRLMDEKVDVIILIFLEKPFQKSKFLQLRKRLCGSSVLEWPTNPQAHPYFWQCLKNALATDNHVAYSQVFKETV
Experimental: Human embryonic kidney 293 (HEK 293) cells were stably transfected with human TLR7 and an NF-kB-driven luciferase reporter vector (pNifty-Luciferase). As a control assay, normal Hek293 transfected with pNifty-Luc were used. Cells were cultured in DMEM supplemented with 2 mM L-glutamine, 10% heart inactivated FBS, 1% penicillin and streptomycin, 2 μg/ml puromycin (InvivoGen #ant-pr-5) and 5 μg/ml of blasticidin (Invitrogen #46-1120). Bright-Glo™ Luciferase assay buffer and substrate were supplied by Promega #E263B and #E264B (assay substrate and buffer respectively). 384 well clear-bottom plates were supplied by Greiner bio-one (#789163-G) and were custom bar-coded plates.
Cells were plated at 25,000 cells/well in 384-well plates in a final volume of 50 μl of media. Cells were allowed to adhere to the plates after overnight (18 hours) culture at 37° C. and 5% CO2. Serially diluted experimental and positive control compounds were then dispensed to each well and incubated for 7 hours at 37° C. and 5% CO2. Cells stimulated with DMSO alone also serve as negative controls. After the incubation, 30 μl of the pre-mix assay buffer and substrate buffer were added to each well according to manufacturer's instructions.
The EC50 value in those experiments is given as that concentration of the test compound in question that provoke a response halfway between the baseline and maximum responses. […] Such EC50 values are obtained relative to the activity of resiquimod set to 100%.

[2] = Binding to alum in 10 mM histidine buffer, LC-MS/MS of supernatant; assay type: physicochemical; conditions: 10 mM histidine buffer pH 6.8; final compound 0.1 mg/mL; 37° C. for 5 hours; 100% minus % unbound
Experimental: The resulting solution was diluted 10-fold with blank histidine buffer to a final compound concentration of 0.1 mg/mL. Diluted solutions were incubated at 37° C. for 5 hours. The samples were centrifuged at 14,000 rpm for 10 minutes to pellet the insoluble. The supernatant (along with an internal standard) was then evaluated by LC-MS/MS using a ballistic gradient (from 5% CH3CN-0.5% formic acid to 95% CH3CN-1.0% formic acid in 3.5 minutes) on a Waters Atlantis dC18 (50 mm×2.1 mm) column at room temperature against a calibration curve prepared at known compound concentrations ranging from 0.005 to 50 μM. The concentration in the supernatant was calculated as % unbound to alum compared to control; the % bound to alum was calculated as 100% minus % unbound.

[3] = Binding to aluminum hydroxide adjuvant, HPLC of formulation supernatant; assay type: physicochemical; conditions: aluminum hydroxide 2 mg/mL, room temperature and 37° C., 1, 5 and 24 hours
Experimental: The binding of the compounds of Formula (I) provided herein to aluminum-containing adjuvants at pH 9 and pH 6.5 was evaluated using HPLC to monitor the presence of the compound of Formula (I) in the supernatant.
(§1) Compound 1 (0.5 mg/mL) was dissolved in 10 mM NaOH and added to aluminum hydroxide adjuvant (2 mg/mL) resulting in a 100 μg/dose formulation. The supernatant was evaluated with HPLC using a ballistic gradient (from 10% CH3CN-0.1% TFA to 100% CH3CN-0.1% TFA in 2.5 minutes) on a C18 ([…]×4.6 mm) ACE column at 45° C. To evaluate the effect of supernatant temperature and incubation time on binding, the supernatant was evaluated at a supernatant temperature of room temperature and at 37° C. after 1 hour, 5 hours and 24 hours. A control without aluminum hydroxide was also evaluated.
as §1, with “5 (1” for “1 (0.5”
as §1, with “formulation. The pH of the solution was adjusted to pH 6.5 using HCl.” for “formulation.”
as §1, with “5 (1” for “1 (0.5”, “histidine buffer (1 mg/mL)” for “NaOH”

Cc1cc(OCCCC(F)(F)P(=O)(O)O)ccc1CCc1cnc2c(N)nc3cc(CCC(=O)O)ccc3c2c1 [Compound 16, 3-(5-amino-2-(4-(4,4-difluoro-4-phosphonobutoxy)-2-methylphenethyl)benzo[f][1,7]naphthyridin-8-yl)propanoic acid]
compound in supernatant after addition of aluminum hydroxide (HPLC) ([1]; alum formulation as described for compound 1): no compound was observed in the supernatant
EC50 (human TLR7): 137 nM
% Alum bound in Histidine buffer [2]: 94.5%

Cc1ccc2c(c1)nc(N)c1ncc(CCc3ccc(OCCCP(=O)(O)O)cc3C)cc12 [Compound 1, 3-(4-(2-(5-amino-8-methylbenzo[f][1,7]naphthyridin-2-yl)ethyl)-3-methylphenoxy)propylphosphonic acid]
quantity of compound in supernatant of formulation treated with KH2PO4 (desorption by phosphate anions) ([1]; 0.5M KH2PO4 pH 9, overnight 37° C.): Increased quantities
Concentration (mg/ml), phosphate/extract ([1]; alum formulation treated with 0.5M KH2PO4, n-butanol extracted sample): 0.119 ± 0.001 mg/mL
Concentration (mg/ml), phosphate supernatent ([1]; alum formulation treated with 0.5M KH2PO4 pH 9 overnight at 37° C., supernatant): 0.059 ± 0.001 mg/mL
Concentration (mg/ml), extaract ([1]; alum formulation, n-butanol extracted sample): 0.027 ± 0.001 mg/mL
Concentration (mg/ml), control/extract ([1]; control formulation without aluminum hydroxide, n-butanol extracted sample): 0.217 ± 0.001 mg/mL
Concentration (mg/ml), supernatant control ([1]; control formulation without aluminum hydroxide, supernatant): 0.329 ± 0.001 mg/mL
Concentration (mg/ml), supernatent ([1]; formulation with 2 mg/ml aluminum hydroxide, 10 mM histidine buffer pH 9, supernatant): 0.005 ± 0.001 mg/mL
EC50 (human TLR7): 226 nM
presence of compound in supernatant when aluminum hydroxide included in formulation (HPLC) ([3]; pH 6.5 (adjusted with HCl)): not present in the supernatant
presence of compound in supernatant when aluminum hydroxide included in formulation (HPLC) ([3]; pH 9, dissolved in 10 mM NaOH): not present in the supernatant

Cc1ccc2c(c1)nc(N)c1ncc(CCc3ccc(OCCCC(F)(F)P(=O)(O)O)cc3C)cc12 [Compound 5, 4-(4-(2-(5-amino-8-methylbenzo[f][1,7]naphthyridin-2-yl)ethyl)-3-methylphenoxy)-1,1-difluorobutylphosphonic acid]
EC50 (human TLR7): 308 nM
presence of compound in supernatant when aluminum hydroxide included in formulation (HPLC) ([3]; pH 6.7, 10 mM histidine buffer): not present in the supernatant
presence of compound in supernatant when aluminum hydroxide included in formulation (HPLC) ([3]; pH 9, dissolved in 10 mM NaOH): not present in the supernatant

Cc1cc(OCCOCCOCCC(F)(F)P(=O)(O)O)ccc1CCc1cnc2c(N)nc3cc(CCC(=O)O)ccc3c2c1 [Compound 17, 3-(5-amino-2-(4-(2-(2-(3,3-difluoro-3-phosphonopropoxy)ethoxy)ethoxy)-2-methylphenethyl)benzo[f][1,7]naphthyridin-8-yl)propanoic acid]
EC50 (human TLR7): 5 nM
% Alum bound in Histidine buffer [2]: 96.2%
